IC50 data for 24 compounds are collected here from patent publication US10442808B2, “Pyrazolo pyrimidine derivatives and their use as MALT1 inhbitors” (NOVARTIS AG, priority 2014, dated 2019).

SMILES strings stand for the structures.

Sequence of C-domain of MALT1 (amino acids 329-824) (Q9UDY8 329-824): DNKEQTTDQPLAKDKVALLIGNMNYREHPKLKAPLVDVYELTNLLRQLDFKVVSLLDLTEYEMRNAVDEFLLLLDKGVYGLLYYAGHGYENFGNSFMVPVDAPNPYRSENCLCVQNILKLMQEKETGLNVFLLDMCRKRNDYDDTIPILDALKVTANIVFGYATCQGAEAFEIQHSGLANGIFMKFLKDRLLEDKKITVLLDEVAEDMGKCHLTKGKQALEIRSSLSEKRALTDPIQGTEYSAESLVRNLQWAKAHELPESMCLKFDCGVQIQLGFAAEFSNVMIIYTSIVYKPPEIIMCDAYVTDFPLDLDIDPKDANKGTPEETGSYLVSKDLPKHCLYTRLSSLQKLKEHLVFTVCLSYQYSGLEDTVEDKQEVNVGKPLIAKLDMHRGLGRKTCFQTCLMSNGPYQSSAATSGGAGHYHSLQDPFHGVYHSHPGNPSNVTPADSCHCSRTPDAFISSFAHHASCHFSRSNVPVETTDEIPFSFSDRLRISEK

One test has as its target C-domain of MALT1 (amino acids 329-824) (Homo sapiens (Human), UniProt Q9UDY8). Put plainly: MALT1 biochemical assay (fluorescence lifetime enzyme activity assay). The settings on record: 60 min preincubation, 2.5 nM enzyme, 1 μM substrate. The protocol:
The readout parameter is the increase of fluorescence lifetime over time, proportional to enzyme activity.
The assay employs a short peptide substrate labeled with the single fluorophore PT14 as a fluorescence lifetime probe sensitive to the cleavage state of the substrate (PT14: 6-(9-oxo-9H-acridin-10-yl)-hexanoate, AssayMetrics, UK). […] The assay buffer consists of 200 mM Tris/HCl at pH 7.5, 0.8 M Na citrate, 100 μM EGTA, 100 μM DTT and 0.05% (w/v) CHAPS. […] Test compounds were dissolved in 100% (v/v) DMSO or a mixture containing 90% (v/v) DMSO and 10% (v/v) H2O at a stock concentration of 100 mM. Serial dilutions of test compounds were prepared using either 100% (v/v) DMSO or a mixture containing 90% (v/v) DMSO and 10% (v/v) H2O.
The exponent, p, is the Hill coefficient.
One may read the IC50 as the concentration at which inhibition is half-maximal. For the compound `CC(C)c1c(NC(=O)Nc2ccc(-c3ccnc(N)n3)c(Cl)c2)cnc2cc(Cl)nn12` [Example 23, 1-(4-(2-aminopyrimidin-4-yl)-3-chlorophenyl)-3-(2-chloro-7-isopropylpyrazolo[1,5-a]pyrimidin-6-yl)urea], the midpoint of inhibition, the IC50, lay at 4 nM. Same read-out and setting: then `C[C@H](O[C@H]1CCOC1)c1c(NC(=O)Nc2cnc(-n3nccn3)c(Cl)c2)cnc2cc(Cl)nn12` [Example 101, 1-(5-chloro-6-(2H-1,2,3-triazol-2-yl)pyridin-3-yl)-3-(2-chloro-7-((S)-1-(((S)-tetrahydrofuran-3-yl)oxy)ethyl)pyrazolo [1,5-a]pyrimidin-6-yl)urea], with 5 nM; and `Cn1ccnc1-c1c(NC(=O)Nc2cnc(-n3nccn3)c(Cl)c2)cnc2cc(Cl)nn12` [Example 86, 1-(5-chloro-6-(2H-1,2,3-triazol-2-yl)pyridin-3-yl)-3-(2-chloro-7-(1-methyl-1H-imidazol-2-yl)pyrazolo[1,5-a]pyrimidin-6-yl)urea], with 80 nM.

Regarding `CN[C@@H](C)c1c(NC(=O)Nc2cnc(-n3nccn3)c(Cl)c2)cnc2cc(Cl)nn12` [Example 119, (S)-1-(5-chloro-6-(2H-1,2,3-triazol-2-yl)pyridin-3-yl)-3-(2-chloro-7-(1-(methylamino)ethyl)pyrazolo[1,5-a]pyrimidin-6-yl)urea], it took 12 nM to reach half-maximal inhibition (IC50). The compound `Cc1cc(CO)nn1-c1ccc(NC(=O)Nc2cnc3cc(Cl)nn3c2C(C)C)cc1Cl` [Example 28, 1-(3-chloro-4-(3-(hydroxymethyl)-5-methyl-1H-pyrazol-1-yl)phenyl)-3-(2-chloro-7-isopropylpyrazolo[1,5-a]pyrimidin-6-yl)urea] gave an IC50 of 9 nM.

In turn, `CC(C)(C)OC(=O)N1CCOC(c2c(NC(=O)Nc3cnc(-n4nccn4)c(Cl)c3)cnc3cc(Cl)nn23)C1` (stereo not drawn) [Example 66, tert-butyl 2-(2-chloro-6-(3-(5-chloro-6-(2H-1,2,3-triazol-2-yl)pyridin-3-yl)ureido)pyrazolo[1,5-a]pyrimidin-7-yl)morpholine-4-carboxylate] registered a 50% inhibitory concentration (IC50) of 18 nM.

In the case of `O=C(Nc1cnc(-n2nccn2)c(Cl)c1)Nc1cnc2cc(Cl)nn2c1C1COCCN1` (stereo not drawn) [Example 123, 1-(5-chloro-6-(2H-1,2,3-triazol-2-yl)pyridin-3-yl)-3-(2-chloro-7-(morpholin-3-yl)pyrazolo[1,5-a]pyrimidin-6-yl)urea], the IC50 was determined as 41 nM. Still for that read-out and setting: to `O=C(Nc1cnc(-n2nccn2)c(Cl)c1)Nc1cnc2cc(Cl)nn2c1C1CNCCO1` (stereo not drawn) [Example 115, 1-(5-chloro-6-(2H-1,2,3-triazol-2-yl)pyridin-3-yl)-3-(2-chloro-7-(morpholin-2-yl)pyrazolo[1,5-a]pyrimidin-6-yl)urea] belongs 76 nM; to `C[C@H](O)c1c(NC(=O)Nc2ccnc(C(F)(F)F)c2)cnc2cc(Cl)nn12` [Example 114, (S)-1-(2-chloro-7-(1-hydroxyethyl)pyrazolo[1,5-a]pyrimidin-6-yl)-3-(2-(trifluoromethyl)pyridin-4-yl)urea], 7 nM.

A further test concerns IL2 promoter. Briefly: Human IL2 promoter reporter gene assay (RGA) in Jurkat cells. The settings on record: […], heading: IL2 reporter gene assay IC50, anti-CD28 mAb + PMA stimulation 5.5 h. In kind it is cell-based. The protocol: Human IL2 Promoter Reporter Gene Assay (RGA) in Jurkat Cells
The transfected Jurkat clone K22 290_H23 was propagated in RPMI 1640 supplemented with 10% heat inactivated fetal calf serum, 50 μM 2-mercaptoethanol and 1 mg/ml Geneticin. The cell concentration should not exceed 1×10e6/ml during culturing. The cells should not exceed passage 30. Prior to the assay the cells were washed and prepared to the concentration of 2×10e6 cells/ml.
Compound dilutions were made as 2×-concentrated solutions then diluted ½ by addition to cells. Two hundred and fifty μl of compound dilution and 250 μl of cells were mixed together in wells of a 96-deep well plate. Cells/compounds premix were incubated 30 min at 37° C. and 5% CO2 directly in the deep well plate.
After pre-incubation of cells with compounds, cells were stimulated with anti-CD28 mAb (clone 15E8) at 3 μg/ml+PMA at 1 μg/ml. Both co-stimulants were diluted in culture medium at a 10×-concentrated solution. 10 μl of co-stimulants were pipetted into the white 96-well plates and 100 μl of cell/compound mix was immediately added in duplicates. The cells were stimulated for 5.5 h at 37° C. and 5% CO2.
After cell stimulation, 50 μl of BriteLitePlus reagent (Perkin Elmer) was added to each well and the bioluminescence was measured with a Wallac EnVision reader (Perkin Elmer).
For the compound `CC(C)c1c(NC(=O)Nc2ccc(-c3ccnc(N)n3)c(Cl)c2)cnc2cc(Cl)nn12` [Example 23, 1-(4-(2-aminopyrimidin-4-yl)-3-chlorophenyl)-3-(2-chloro-7-isopropylpyrazolo[1,5-a]pyrimidin-6-yl)urea], the concentration for half-maximal inhibition (IC50) turned out to be 526 nM. Still for that read-out and setting: then `Cn1ccnc1-c1c(NC(=O)Nc2cnc(-n3nccn3)c(Cl)c2)cnc2cc(Cl)nn12` [Example 86, 1-(5-chloro-6-(2H-1,2,3-triazol-2-yl)pyridin-3-yl)-3-(2-chloro-7-(1-methyl-1H-imidazol-2-yl)pyrazolo[1,5-a]pyrimidin-6-yl)urea], with 44 nM; and `CC(C)(C)OC(=O)N1CCOC(c2c(NC(=O)Nc3cnc(-n4nccn4)c(Cl)c3)cnc3cc(Cl)nn23)C1` (stereo not drawn) [Example 66, tert-butyl 2-(2-chloro-6-(3-(5-chloro-6-(2H-1,2,3-triazol-2-yl)pyridin-3-yl)ureido)pyrazolo[1,5-a]pyrimidin-7-yl)morpholine-4-carboxylate], with 28 nM. On to `COCCO[C@@H](C)c1c(NC(=O)Nc2cnc(OC(F)F)c(Cl)c2)cnc2cc(Cl)nn12` [Example 97, (S)-1-(5-chloro-6-(difluoromethoxy)pyridin-3-yl)-3-(2-chloro-7-(1-(2-methoxyethoxy)ethyl)pyrazolo[1,5-a]pyrimidin-6-yl)urea], for which the IC50 was 218 nM. On the same count and under the same terms, then `CN1CCOCC1Cc1c(NC(=O)Nc2cnc(-n3nccn3)c(Cl)c2)cnc2cc(Cl)nn12` (stereo not drawn) [Example 83, 1-(5-chloro-6-(2H-1,2,3-triazol-2-yl)pyridin-3-yl)-3-(2-chloro-7-((4-methylmorpholin-3-yl)methyl)pyrazolo[1,5-a]pyrimidin-6-yl)urea], with 13 nM; and `Cc1cnn(-c2ncc(NC(=O)Nc3cnc4cc(Cl)nn4c3C(C)C)cc2Cl)n1` [Example 22, 1-(5-chloro-6-(4-methyl-2H-1,2,3-triazol-2-yl)pyridin-3-yl)-3-(2-chloro-7-isopropylpyrazolo[1,5-a]pyrimidin-6-yl)urea], with 214 nM. `COc1ncc(NC(=O)Nc2cnc3cc(Cl)nn3c2-c2ccncc2)cc1Cl` [Example 69, 1-(5-chloro-6-methoxypyridin-3-yl)-3-(2-chloro-7-(pyridin-4-yl)pyrazolo[1,5-a]pyrimidin-6-yl)urea]: the IC50 stood at 206 nM. The same measure, in the same setting: to `CO[C@@H](C)c1c(NC(=O)Nc2ccnc(C#N)c2)cnc2cc(Cl)nn12` [Example 105, (S)-1-(2-chloro-7-(1-methoxyelhyl)pyrazolo[1,5-a]pyrimidin-6-yl)-3-(2-cyanopyridin-4-yl)urea] belongs 112 nM; to `CC(C)(C)c1c(NC(=O)Nc2cnc(-n3nccn3)c(Cl)c2)cnc2cc(Cl)nn12` [Example 34, 1-(7-(tert-butyl)-2-chloropyrazolo[1,5-a]pyrimidin-6-yl)-3-(5-chloro-6-(2H-1,2,3-triazol-2-yl)pyridin-3-yl)urea], 145 nM. Still for that read-out and setting: then `CO[C@@H](C)c1c(NC(=O)Nc2cnc(OC(F)F)c(Cl)c2)cnc2cc(Cl)nn12` [Example 93, (S)-1-(5-chloro-6-(difluoromethoxy)pyridin-3-yl)-3-(2-chloro-7-(1-methoxyethyl)pyrazolo[1,5-a]pyrimidin-6-yl)urea], with 59 nM; and `COCCC(OC)c1c(NC(=O)Nc2cnc(-n3nccn3)c(Cl)c2)cnc2cc(Cl)nn12` (stereo not drawn) [Example 64, 1-(5-chloro-6-(2H-1,2,3-triazol-2-yl)pyridin-3-yl)-3-(2-chloro-7-(1,3-dimethoxypropyl)pyrazolo[1,5-a]pyrimidin-6-yl)urea], with 32 nM; and `CO[C@H](c1c(NC(=O)Nc2cnc(-n3nccn3)c(Cl)c2)cnc2cc(Cl)nn12)[C@@H](C)OC` [Example 98, 1-(5-chloro-6-(2H-1,2,3-triazol-2-yl)pyridin-3-yl)-3-(2-chloro-7-((1R,2R)-1,2-dimethoxypropyl)pyrazolo[1,5-a]pyrimidin-6-yl)urea], with 115 nM. On the same count and under the same terms, to `Cc1ncn(-c2ccc(NC(=O)Nc3cnc4cc(Cl)nn4c3C(C)C)cc2C#N)n1` [Example 19, 1-(2-chloro-7-isopropylpyrazolo[1,5-a]pyrimidin-6-yl)-3-(3-cyano-4-(3-methyl-1H-1,2,4-triazol-1-yl)phenyl)urea] belongs 104 nM; to `CC1(c2c(NC(=O)Nc3ccnc(C(F)(F)F)c3)cnc3cc(Cl)nn23)CCCO1` (stereo not drawn) [Example 36, 1-(2-chloro-7-(2-methyltetrahydrofuran-2-yl)pyrazolo[1,5-a]pyrimidin-6-yl)-3-(2-(trifluoromethyl)pyridin-4-yl)urea], 43 nM; to `CO[C@@H](C)c1c(NC(=O)Nc2ccnc(C(F)(F)F)c2)cnc2cc(F)nn12` [Example 7, (S)-1-(2-fluoro-7-(1-methoxyethyl)pyrazolo[1,5-a]pyrimidin-6-yl)-3-(2-(trifluoromethyl)pyridin-4-yl)urea], 33 nM. With `CC(C)c1c(NC(=O)Nc2cc(C(F)(F)F)cn(C)c2=O)cnc2cc(Cl)nn12` [Example 32, 1-(2-chloro-7-isopropylpyrazolo[1,5-a]pyrimidin-6-yl)-3-(1-methyl-2-oxo-5-(trifluoromethyl)-1,2-dihydropyridin-3-yl)urea], the IC50 turned out to be 59 nM.

Take `CO[C@@H](C)c1c(NC(=O)Nc2cnc(-n3nccn3)c(C(F)(F)F)c2)cnc2cc(F)nn12` [Example 94, (S)-1-(6-(2H-1,2,3-triazol-2-yl)-5-(trifluoromethyl)pyridin-3-yl)-3-(2-fluoro-7-(1-methoxyethyl)pyrazolo[1,5-a]pyrimidin-6-yl)urea]: the IC50 came out at 484 nM.

The same test, now with this note: anti-CD28 mAb + PMA stimulation 5.5 h.
Turning to `CO[C@@H](C)c1c(NC(=O)Nc2cc(C(F)(F)F)cn(C)c2=O)cnc2cc(Cl)nn12` [Example 3, (S)-1-(2-chloro-7-(1-methoxyethyl)pyrazolo[1,5-a]pyrimidin-6-yl)-3-(1-methyl-2-oxo-5-(trifluoromethyl)-1,2-dihydropyridin-3-yl)urea], the half-maximal inhibitory concentration (IC50) came out at 131 nM.
